# Experimental data from PubChem BioAssay AID256 (DTP/NCI, 2004).
# Several values for one entry are separate records, joined by “and”; a condition that tells them apart may be missing. Equal values may be shown once. Inconclusive results and toxic doses are left out.
# Tested on: CD2F1 mice, L1210 leukemia ip, survival T/C
# Experiment: NCI In Vivo Anticancer Drug Screen. Data for tumor model L1210 Leukemia (intraperitoneal) in CD2F1 (CDF1) mice
# Conditions: higher = longer survival
# How it was run: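 Transplantable tumor in mice; compound-treated vs vehicle-treated groups. Read-out = treated/control ratio of the measured endpoint.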
# [1] = endpoint: mean survival time, dose: 100.0 mg/kg/injection, schedule: Q04DX003 (ip), vehicle: saline with Tween-80
# [2] = endpoint: mean survival time, dose: 200.0 mg/kg/injection, schedule: Q04DX003 (ip), vehicle: saline with Tween-80
# [3] = endpoint: mean survival time, dose: 400.0 mg/kg/injection, schedule: Q04DX003 (ip), vehicle: saline with Tween-80
# [4] = endpoint: mean survival time, dose: 100.0 mg/kg/injection, schedule: Q01DX001 (ip), vehicle: saline with Tween-80
# [5] = endpoint: mean survival time, dose: 200.0 mg/kg/injection, schedule: Q01DX001 (ip), vehicle: saline with Tween-80
# [6] = endpoint: mean survival time, dose: 400.0 mg/kg/injection, schedule: Q01DX001 (ip), vehicle: saline with Tween-80
# [7] = endpoint: mean survival time, dose: 50.0 mg/kg/injection, schedule: Q01DX009 (ip), vehicle: saline with Tween-80
# [8] = endpoint: mean survival time, dose: 100.0 mg/kg/injection, schedule: Q01DX009 (ip), vehicle: saline with Tween-80
# [9] = endpoint: mean survival time, dose: 200.0 mg/kg/injection, schedule: Q01DX009 (ip), vehicle: saline with Tween-80
structure (smiles),measurement,setting,value
Cc1cccn(O)c1=NC(=O)c1ccccc1,T/C,[1],95 % of control
same,T/C,[2],105 % of control
same,T/C,[3],86 % of control
CCCCS(=O)(=O)c1ccc(Cl)cc1,T/C,[1],96 % of control
same,T/C,[2],100 % of control
same,T/C,[3],105 % of control
OC1c2ccccc2C2CC12 (stereo not drawn),T/C,[4],105 % of control
same,T/C,[5],102 % of control
same,T/C,[6],105 % of control
COc1cc(OC)c(NC(=O)Nc2ccc(C)c([N+](=O)[O-])c2)cc1Cl,T/C,[7],98 % of control
same,T/C,[8],90 % of control
same,T/C,[9],94 % of control
CC(=O)OCC(OC(C)=O)C(OC(C)=O)C(OC(C)=O)C(S)S (stereo not drawn),T/C,[1],103 % of control
same,T/C,[2],109 % of control
same,T/C,[3],101 % of control
CO[C@H]1C[C@@H]2CC[C@@H](C)[C@@](O)(O2)C(=O)C(=O)N2CCCC[C@H]2C(=O)O[C@H]([C@H](C)C[C@@H]2CC[C@@H](O)[C@H](OC)C2)CC(=O)[C@H](C)C=C(C)[C@@H](O)[C@@H](OC)C(=O)[C@H](C)C[C@H](C)/C=C/C=C/C=C1C,T/C,"endpoint: mean survival time, dose: 12.5 mg/kg/injection, schedule: Q01DX009 (ip), vehicle: saline with Tween-80",107 % of control
same,T/C,"endpoint: mean survival time, dose: 25.0 mg/kg/injection, schedule: Q01DX009 (ip), vehicle: saline with Tween-80",113 % of control
same,T/C,[7],114 % of control
same,T/C,[4],113 % of control
same,T/C,[8],112 % of control
same,T/C,[5],111 % of control
same,T/C,[9],104 % of control
same,T/C,[6],120 % of control
O=C(Nc1ccc(C2=NCCN2)cc1)c1ccc(NC(=O)c2ccc(C3=NCCN3)cc2)cc1,T/C,"endpoint: median survival time, dose: 30.0 mg/kg/injection, schedule: Q01DX009 (ip), vehicle: saline",166 % of control
same,T/C,"endpoint: median survival time, dose: 60.0 mg/kg/injection, schedule: Q01DX009 (ip), vehicle: saline",244 % of control
CC(=O)CC(O)(C(F)(F)F)C(F)(F)F,T/C,[7],101 % of control
same,T/C,[8],102 % of control
same,T/C,[1],102 % of control
same,T/C,[9],101 % of control
same,T/C,[2],89 % of control
O=C1C=C(c2ccccc2)OC(=O)C1C(=O)c1ccccc1 (stereo not drawn),T/C,[4],98 % of control
same,T/C,[5],94 % of control
CCCC/C=C\C(=O)O,T/C,[7],102 % of control
same,T/C,[8],102 % of control
same,T/C,[9],98 % of control
CSCCSC,T/C,[4],104 % of control
same,T/C,[5],98 % of control
same,T/C,[6],96 % of control
Cc1cccc(N)n1 (tested in a mixture with another compound),T/C,"endpoint: mean survival time, dose: 12.5 mg/kg/injection, schedule: Q01DX009 (ip), vehicle: saline",104 % of control
same,T/C,"endpoint: mean survival time, dose: 25.0 mg/kg/injection, schedule: Q01DX009 (ip), vehicle: saline",101 % of control
same,T/C,"endpoint: mean survival time, dose: 50.0 mg/kg/injection, schedule: Q01DX009 (ip), vehicle: saline",96 % of control
C/C=C/C=C/c1cc2cc3c(c(O)c2c(=O)[nH]1)C1(CC3)C(O)=c2c(=O)c3c(=O)cc(OC)c(=O)c=3c(=O)c2=C1O (stereo not drawn),T/C,"endpoint: mean survival time, dose: 0.06 mg/kg/injection, schedule: Q01DX009 (ip), vehicle: DMSO",90 % of control and 93 % of control and 108 % of control
same,T/C,"endpoint: mean survival time, dose: 0.06 mg/kg/injection, schedule: Q01DX009 (ip), vehicle: Klucel (hydroxypropylcellulose) (HPC)",97 % of control
same,T/C,"endpoint: mean survival time, dose: 0.12 mg/kg/injection, schedule: Q01DX009 (ip), vehicle: DMSO",113 % of control and 107 % of control
same,T/C,"endpoint: mean survival time, dose: 0.12 mg/kg/injection, schedule: Q01DX009 (ip), vehicle: Klucel (hydroxypropylcellulose) (HPC)",98 % of control
same,T/C,"endpoint: mean survival time, dose: 0.25 mg/kg/injection, schedule: Q01DX009 (ip), vehicle: DMSO",118 % of control
same,T/C,"endpoint: mean survival time, dose: 0.25 mg/kg/injection, schedule: Q01DX009 (ip), vehicle: Klucel (hydroxypropylcellulose) (HPC)",98 % of control
same,T/C,"endpoint: mean survival time, dose: 0.5 mg/kg/injection, schedule: Q01DX009 (ip), vehicle: DMSO",94 % of control
same,T/C,"endpoint: mean survival time, dose: 0.5 mg/kg/injection, schedule: Q01DX009 (ip), vehicle: Klucel (hydroxypropylcellulose) (HPC)",98 % of control
same,T/C,"endpoint: mean survival time, dose: 1.0 mg/kg/injection, schedule: Q01DX009 (ip), vehicle: Klucel (hydroxypropylcellulose) (HPC)",98 % of control
same,T/C,"endpoint: mean survival time, dose: 2.0 mg/kg/injection, schedule: Q01DX009 (ip), vehicle: Klucel (hydroxypropylcellulose) (HPC)",104 % of control
same,T/C,"endpoint: median survival time, dose: 0.03 mg/kg/injection, schedule: Q01DX009 (ip), vehicle: DMSO",89 % of control
O=C(Cc1ccc([N+](=O)[O-])cc1)Nc1ccc(S(=O)(=O)F)cc1,T/C,"endpoint: mean survival time, dose: 100.0 mg/kg/injection, schedule: Q01DX001 (ip), vehicle: saline",96 % of control
same,T/C,"endpoint: mean survival time, dose: 200.0 mg/kg/injection, schedule: Q01DX001 (ip), vehicle: saline",103 % of control
same,T/C,"endpoint: mean survival time, dose: 400.0 mg/kg/injection, schedule: Q01DX001 (ip), vehicle: saline",100 % of control
CCOC(=O)c1c(C)c2c(n1C)CC/C(=C\N1CCOCC1)C2=O,T/C,"endpoint: mean survival time, dose: 100.0 mg/kg/injection, schedule: Q04DX002 (ip), vehicle: saline with Tween-80",93 % of control
same,T/C,"endpoint: mean survival time, dose: 200.0 mg/kg/injection, schedule: Q04DX002 (ip), vehicle: saline with Tween-80",93 % of control
same,T/C,"endpoint: mean survival time, dose: 400.0 mg/kg/injection, schedule: Q04DX002 (ip), vehicle: saline with Tween-80",96 % of control
CNC(=O)c1n[nH]c(C)c1N,T/C,"endpoint: mean survival time, dose: 25.0 mg/kg/injection, schedule: Q01DX009 (ip), vehicle: water",97 % of control
same,T/C,"endpoint: mean survival time, dose: 50.0 mg/kg/injection, schedule: Q01DX009 (ip), vehicle: water",98 % of control
same,T/C,"endpoint: mean survival time, dose: 100.0 mg/kg/injection, schedule: Q01DX009 (ip), vehicle: water",101 % of control
same,T/C,"endpoint: mean survival time, dose: 200.0 mg/kg/injection, schedule: Q01DX009 (ip), vehicle: water",98 % of control
same,T/C,"endpoint: mean survival time, dose: 400.0 mg/kg/injection, schedule: Q01DX009 (ip), vehicle: water",101 % of control
CC(C)([NH-])C[NH-].[Cl][Pt+2][Cl],T/C,"endpoint: median survival time, dose: 10.0 mg/kg/injection, schedule: Q04DX003 (ip), vehicle: saline with Tween-80",98 % of control
same,T/C,"endpoint: median survival time, dose: 20.0 mg/kg/injection, schedule: Q04DX003 (ip), vehicle: saline with Tween-80",95 % of control
same,T/C,"endpoint: median survival time, dose: 40.0 mg/kg/injection, schedule: Q04DX003 (ip), vehicle: saline with Tween-80",102 % of control
same,T/C,"endpoint: median survival time, dose: 80.0 mg/kg/injection, schedule: Q04DX003 (ip), vehicle: saline with Tween-80",103 % of control and 112 % of control
same,T/C,"endpoint: median survival time, dose: 160.0 mg/kg/injection, schedule: Q04DX003 (ip), vehicle: saline with Tween-80",117 % of control
